Experimental data reported in patent publication US20080293812A1, “Use of pamoic acid or one of its derivatives, or one of its analogues, for the preparation of a medicament for the treatment of diseases characterised by deposits of amyloid aggregates” (Sigma-Tau Industrie Farmaceutiche Riunite S. P.A.,, priority 2000, published 2008).
One block for each compound: values may come before it.

How the values were obtained:
β-amyloid25-35 peptide = target: T1, β-amyloid25-35 peptide (Homo sapiens, UniProt P05067); experiment: Antiaggregant effect on β-amyloid25-35 peptide (centrifugation, settled solid); format: biochemical; conditions: sodium pamoate 1 mM, βA25-35 1 mM, phosphate buffer 100 mM pH 5, 24 hours ambient temperature
T1 construct: aqueous solution of βA25-35 2 mM (cat. Bachem n° H-1192.0001); purchased Bachem H-1192.0001
Description: To 250 μl of a solution consisting of sodium pamoate 2 mM and phosphate buffer 200 mM pH 5 were added 250 μl of an aqueous solution of βA25-35 2 mM (cat. Bachem n° H-1192.0001). 500 μl of a solution of sodium pamoate 1 mM, βA25-35 1 mM and phosphate buffer 100 mM pH 5 were thus obtained. The same process was carried out for the control sample where sodium pamoate was not present. After 24 hours at ambient temperature, the sample and control were centrifuged at 12000 rpm for 20 minutes, separating the settled solids from the supernatants. To the settled solids were added 250 μL of water. After 3 hours at ambient temperature the samples were centrifuged again at a 12000 rpm for 20 minutes.

βA1-42 peptide [1] = target: T2, βA1-42 peptide (Homo sapiens, UniProt P05067); experiment: Antiaggregant effect on β-amyloid1-42 peptide, thioflavin T binding, 5 days incubation; format: biochemical
T2 construct: βA1-42 peptide (1 mg/ml) was dissolved in H2O/CH3CN (1:1)
T2 sequence (P05067 672-713): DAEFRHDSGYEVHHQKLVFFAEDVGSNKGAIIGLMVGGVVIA
Description: The antiaggregant effects of sodium pamoate on βA1-42 peptide were evaluated by measuring thioflavin T binding according to the following procedure. βA1-42 peptide (cat. Bachem n° H-1368.0500) at a concentration of 0.22 mM was incubated at 37° C. in Tris buffer 100 mM pH 7.4, alone or in the presence of sodium pamoate, for 5 days. The molar ratios of the peptide to sodium pamoate were generally 1:8, 1:4 and 1:2. The solution was centrifuged at 13000 rpm for 5 minutes and the supernatant was eliminated. The precipitate was washed with 500 μl of H2O and centrifuged at 13000 rpm for 5 minutes. In the precipitate, the aggregate in fibril form was detected with 600 μl of thioflavin T (ThT) 2 μM dissolved in glycine-NaOH buffer 50 mM, pH 9.4. After 5 minutes' incubation 500 μl of samples were transferred to a quartz cuvette and the fluorimetric signal was determined at 420 nm excitation and 480 nm emission in a spectrophotofluorimeter. In these conditions the fluorimetric signal is proportional to the amount of amyloid aggregate (Le Vine, Methods in Enzymology, vol. 309 pp 274-284).

βA1-42 peptide [2] = target: T2, βA1-42 peptide; experiment: βA1-42 polymerization, Thioflavina T binding assay in 96 well plates; format: biochemical; conditions: concentrations between 0.8 and 100 μM, overnight at 37° C.; read-out: DE50 (the source's name)
Description: The ST1641, ST1722, ST1859, ST1745, ST1800, ST1913 capability to counteract βA1-42 polymerization was evaluated using the Thioflavina “T” binding assay with the following procedure (M. A. Findeis, S. M. Molineaux; Methods in Enzymology 309, 487-488 (1999)): βA1-42 peptide (1 mg/ml) was dissolved in H2O/CH3CN (1:1), lyophilized, solubilized in DMSO+PBS and incubated at 37° C. for 8 days. The peptide was then sonicated and dissolved in PBS (1:5). 96 well plates were prepared with a solution of βA1-42 (40 μl/well) and ST testing compounds (50 μl/well, at concentrations between 0.8 and 100 μM). 50 μl of not aggregated βA1-42 was added after 15 minutes to each well and the plates were incubated overnight at 37° C. with agitation. 200 μl of a reaction mixture containing Thioflavina “T” (10 μM) and Na2HPO4×2H2O (50 μM) solution (pH 6.5) was then added to each well. The fluorescence was measured at 450 nm of excitation and 482 nm of emission with a 96 well fluorimetric plate reader within 60 seconds. At this experimental conditions fluorimetric measures were related to the amount of βA1-42 polymerized peptide.

[3] = target: T3, previously aggregated βA1-42 peptide (Homo sapiens, UniProt P05067); experiment: Dissolution of aggregates of preformed β-amyloid1-42 in fibril form, thioflavin T binding; format: biochemical; conditions: peptide:pamoate ratio 1:8
T3 construct: βA1-42 peptide (cat. Bachem n° H-1368.0500) at a concentration of 0.22 mM; purchased Bachem H-1368.0500
T3 sequence (P05067 672-713): as above
Description: This experiment was conducted in order to assess the antiaggregant capacity of sodium pamoate on previously aggregated βA1-42 peptide, according to the following procedure. βA1-42 peptide was left to aggregate for 48 hours at 37° C. in the conditions described in Example 6. Sodium pamoate was added (peptide:pamoate ratio 1:8).

βA1-42 peptide [4] = target: T2, βA1-42 peptide; experiment: Resistance of β-amyloid1-42 peptide to trypsin digestion, HPLC; format: biochemical
Description: βA1-42 peptide was dissolved with 15 μl of NaOH 0.1 M. The solution was brought to pH 7.4 with 15 μl of TRIS buffer 100 mM to which were added 30 μl of buffer alone or 30 μl of buffer solution containing sodium pamoate. The final concentration of βA1-42 peptide was 0.22 mM, and that of sodium pamoate ranged from 0.055 to 1.76 mM, thus with a βA1-42 peptide:sodium pamoate ratio ranging from 4:1 to 1:8. The samples thus prepared were incubated at 37° C. for 5 days; in these conditions βA1-42 peptide formed aggregates in the form of fibrils modifying its structure from random-coil to β-sheet (Zagorski M. G. et al. 1999 “Methodological and Chemical Factors Affecting Amyloid β Peptide Amyloidogenicity” Methods in Enzymology 309:189-204). After 5 days' incubation, 24 μg of trypsin (Merck) were added to each sample, stirred and centrifuged for 1 minute at 13000 rpm; the samples were then left to incubate at 37° C. for 1 hour. When this period had elapsed, the mixture was centrifuged for 5 minutes at 13000 rpm, eliminating 50 μl of supernatant, and the precipitate was dissolved with 40 μl of HCOOH and 10 μl of H2O containing 0.1% of trifluoroacetic acid (TFA). At this point the sample was ready for quantitative HPLC analysis. The HPLC profile of the sample incubated with sodium pamoate was compared with that obtained with peptide alone, thereby quantifying the βA1-42 peptide.

[5] = test system: primary cortical neuronal cultures; experiment: Inhibition of neurotoxicity induced by β-amyloid25-35 in primary neuronal cultures; format: cell-based, rat
Description: To verify the potential neuroprotective activity of sodium pamoate, primary cortical neuronal cultures obtained by microdissection of rat foetal brain at day 16-18 of gestation were used. The cerebral tissue was cultivated in the presence of foetal calf serum and the glial proliferation was inhibited by adding to the incubation medium the antimitotic agent cytosine arabinoside on days 3 and 5 (Andreoni et al. 1997 Exp. Neurology 148:281-287). The cell cultures were exposed to βA25-35 peptide for 5-7 days in the presence or absence of sodium pamoate. The neuroprotective action was evaluated in conditions of neurotoxicity induced by kainic acid to verify the specificity of action of sodium pamoate and its effective antiaggregant activity against the neurotoxic agent. The ability of sodium pamoate to protect the cells against degeneration was also evaluated in neuronal cells cultured in the absence of foetal calf serum in the culture medium. In this case, 24 hours after seeding, the medium was replaced with one without serum containing glutamine, insulin, transferrin, putrescin, progesterone, sodium selenite and Hepes.
Primary cultures of neurons of the […] were taken from the rat foetal brain on days 16-18 of gestation and cultured in foetal calf serum. On incubation days 3 and 5, glial proliferation was inhibited using cytosine arabinoside as an antimitotic agent.
The cultures were exposed to βA25-35 peptide at concentrations of 25 and 50 μM from the day following seeding for 5 to 7 days.
βA25-35 peptide was added to the cultures together with sodium pamoate which had equimolar concentrations or concentrations lower than those of the peptide itself.
The protection against neurotoxicity was evaluated using the colorimetric method and densitometric analysis with an image analyser.

cerebellar granules = experiment: Apoptosis of cerebellar granules induced by K+ deprivation; format: cell-based, rat; conditions: concentration of 10 μM
Description: Granules isolated from cerebellum of 8-day-old rats are differentiated biochemically and morphologically in approximately one week, becoming morphologically mature and with a glutamatergic interneuron phenotype (Gallo et al. 1982 PNAS 79:7919-7923). On depriving the culture medium of serum and reducing the extracellular concentration of potassium ions (25 mM) to the extent of bringing it down to a non-depolarising condition (5 mM), cell death by apoptosis is obtained in approximately 24 hours.
This experimental model made it possible to obtain a “self-fuelling” βA production system where neuronal apoptosis of the cerebellar granules brought about changes in the processing of the amyloid precursor APP, of such a nature as to favour the course of amyloidogenic metabolism. The increase in βA levels, in turn, favours programmed cell death. In this experimental setting, the potential efficacy of the study substances was measured in terms of cell survival at given times (24, 48 and 72 hours) after the reduction of KCl in the medium.
In primary cultures of cerebellar granules of 8-day-old rats, maintained in a culture medium containing KCl 25 mM, the cells were labelled with ^35S-methionine after 6 days in culture. […]
The protection against toxicity was assessed in terms of cell viability at 24, 48 and 72 hours.

[6] = Capability to cross in vivo the blood brain barrier, 14C-labelled compound; parameters: species or system rats; conditions: i.v.
Description: ST1859 inhibited “in vitro” the beta amyloid aggregation and to test its permeability through the intact blood-brain barrier, ST1859, labelled with ^14C(S. A. 50 μCi/mM), was injected i.v. into normal rats at the dose of 18 μCi/rat. The brain and blood were up-taken 30′ after the injection, the blood was then centrifuged (3000 RPM×15 min) and serum obtained was diluted 1:20 with water while brain tissue was homogenized 1:20 w/v in water. To each sample was then added 4 ml of scintillation liquid for aqueous samples The amount of radioactivity was counted with an automatic β-counter (Packard 4600). Data reported in DPM (table 1) were normalized vs. weight or volume of each sample.

[7] = 18 μCi/rat, 30′ after the injection, mean

Compound: O=C(O)c1cc2ccccc2c(Cc2c([O-])c(C(=O)O)cc3ccccc23)c1[O-].[Na+].[Na+] [ST1641, sodium pamoate]
inhibition of aggregation of βA25-35 peptide in fibrils (β-amyloid25-35 peptide): complete inhibition
efficacy in reducing thioflavin T binding as a function of incubation time (βA1-42 peptide [1]; from 1 to 5 days' incubation): progressive increase in efficacy
reduction in the formation of βA1-42 aggregates in the form of fibrils as compared to controls (βA1-42 peptide [1]; βA1-42 0.22 mM, 37° C., 5 days, peptide:pamoate 1:8, 1:4, 1:2, dose-dependent): ≤ 70%
EC50 (βA1-42 peptide [2]): 38.2 µM
activity in reducing thioflavin T binding ([3]; preformed aggregates): extremely active
reduction in fluorescence as compared to controls ([3]; βA1-42 aggregated 48 hours at 37° C.): 70%
increase of trypsin hydrolysis of βA1-42 (βA1-42 peptide [4]; highest dose, peptide:pamoate ratio 1:8): more than 50%
increase of trypsin hydrolysis of βA1-42 (βA1-42 peptide [4]; lowest dose, peptide:pamoate ratio 1:4): more than 40%
protection against the toxicity induced by βA25-35 [5]: complete protection
percentage survival ([5]; Sodium pamoate 25 μM + βA25-35 50 μM): 100 % S
percentage survival ([5]; Sodium pamoate 25 μM alone): 88 % S
protection against the damage induced by amyloid forming during the apoptotic process (cerebellar granules): 89%

Compound: CC(=O)O[C@H](CC(=O)Oc1c(C(=O)O)cc2ccccc2c1Cc1c(O)c(C(=O)O)cc2ccccc12)C[N+](C)(C)C [ST1722, (2R)-2-(acetyloxy)-4-({3-carboxy-1-[(3-carboxy-2-hydroxy-1-naphthyl)methyl]-2-naphthyl}oxy)-N,N,N-trimethyl-4-oxo-1-butanaminium chloride]
EC50 (βA1-42 peptide [2]): 90.3 µM

EC50 (βA1-42 peptide [2]): 8 µM
Compound: CC(=O)O[C@H](CC(=O)Oc1ccc2ccccc2c1Cc1c(O)ccc2ccccc12)C[N+](C)(C)C [ST1745, (2R)-2-(acetyloxy)-4-({1-[(2-hydroxy-1-naphthyl)methyl]-2-naphthyl}oxy)-N,N,N-trimethyl-4-oxo-1-butanaminium chloride]

EC50 (βA1-42 peptide [2]): > 50 µM
Compound: CCN(CC)CCOC(=O)c1cc2ccccc2c(Cc2c(O)c(C(=O)OCCN(CC)CC)cc3ccccc23)c1O [ST1800, 2-({4-[(3-{[2-(diethylammonio)ethoxy]carbonyl}-2-hydroxy-1-naphthyl)methyl]-3-hydroxy-2-naphthoyl}oxy)-N,N-diethylethanaminium dichloride]

EC50 (βA1-42 peptide [2]): 5.4 µM
Brain radioactivity [6, 7]: 35.643 DPM/g
Serum radioactivity [6, 7]: 29.776 DPM/ml
Serum/Brain [6, 7]: 0.833
ability to cross the blood brain barrier ([6]; normal rats): able to cross the blood brain barrier
Compound: Oc1ccc2ccccc2c1Cc1c(O)ccc2ccccc12 [ST1859, 1,1′-methylene-di(2-naphthol)]

EC50 (βA1-42 peptide [2]): 7.8 µM
Compound: NCC(=O)Oc1ccc2ccccc2c1Cc1c(O)ccc2ccccc12 [ST1913, 2-({1-[(2-hydroxy-1-naphthyl)methyl]-2-naphthyl}oxy)-2-oxoethanaminium chloride]

Compound: βA25-35: β-amyloid25-35 peptide (cat. Bachem n° H-1192.0001), used as neurotoxic agent (GSNKGAIIGLM; Amyloid-beta protein 42; UniProt P05067 696-706, looked up, fragment) [reference compound]
percentage survival ([5]; βA25-35 50 μM alone): 16 % S
